Data taken from patent publication US20210246115A1 (Bioimics AB, priority 2017, published 2021).
Where a name gives a salt, the structure may show the parent alone.

How the values were obtained:
[1] = system: E. coli RNase P RNA, M1 RNA; test: Inhibition of bacterial RNase P activity, IC50 determination (cleavage of pATSerUG by M1 RNA); format: biochemical; conditions: NI: No inhibition
[2] = system: Escherichia coli (ATCC25922); test: MIC, broth microdilution (CLSI), Escherichia coli; conditions: Escherichia coli, ATCC25922, read-out: E. coli ATCC 25922 MIC, Table XIII
[3] = system: Staphylococcus aureus (ATCC25923); test: MIC, broth microdilution (CLSI), Staphylococcus aureus ATCC25923; conditions: Staphylococcus aureus, ATCC25923, read-out: S. aureus ATCC 25923 MIC

SMILES	IC50 [1] [µM]	MIC [2] [µg/mL]	MIC [3] [µg/mL]	IC50 ([1]; hydrochloride salt) [µM]
Cc1cccc(C(CC(=O)NCC2CCC(CN)CC2)c2cn(CC3CCCCC3)c3ccc(Br)cc23)c1.Cl (stereo not drawn) [Compound 203, N-((4-(aminomethyl)cyclohexyl)methyl)-3-(5-bromo-1-(cyclohexylmethyl)-1H-indol-3-yl)-3-(m-tolyl)propanamide hydrochloride salt]	115	> 512	5	–
Cc1cccc(C(CC(=O)N[C@H]2CC[C@H](N)CC2)c2cn(CC3CCCCC3)c3ccccc23)c1.Cl (stereo partly drawn) [Compound 104, N-((1R,4R)-4-aminocyclohexyl)-3-(1-(cyclohexylmethyl)-1H-indol-3-yl)-3-(m-tolyl)propanamide hydrochloride salt]	16	64	8	–
Cc1cccc(C(CC(=O)N(C)C2CCNCC2)c2cn(CC3CCCCC3)c3ccc(Br)cc23)c1.Cl (stereo not drawn) [Compound 278, 3-(5-bromo-1-(cyclohexylmethyl)-1H-indol-3-yl)-N-methyl-N-(piperidin-4-yl)-3-(m-tolyl)propanamide hydrochloride salt]	15	> 512	2	–
Cc1cccc(C(CC(=O)NCCC2CCNCC2)c2cn(Cc3ccccc3)c3ccccc23)c1.Cl (stereo not drawn) [Compound 55, 3-(1-benzyl-1H-indol-3-yl)-N-(2-(piperidin-4-yl)ethyl)-3-(m-tolyl)propanamide hydrochloride salt]	–	264	66	172
Cc1cccc(-c2ccc3c(c2)c(CCC(=O)NC2CCC(N)CC2)cn3CC2CCCCC2)c1.Cl (stereo not drawn) [Compound 144, N-((1s,4s)-4-aminocyclohexyl)-3-(1-(cyclohexylmethyl)-5-(m-tolyl)-1H-indol-3-yl)propanamide hydrochloride salt]	7.5	64	4	–
Cl.N[C@H]1CC[C@H](NC(=O)CC(c2cccc(C(F)(F)F)c2)c2cn(CC3CCCCC3)c3ccccc23)CC1 (stereo partly drawn) [Compound 129, N-((1R,4R)-4-aminocyclohexyl)-3-(1-(cyclohexylmethyl)-1H-indol-3-yl)-3-(3-(trifluoromethyl)phenyl) propanamide hydrochloride salt]	13	> 512	4	–
Cc1cccc(C(CC(=O)N2CCC(CCN)CC2)c2cn(CC3CCCCC3)c3ccccc23)c1.Cl (stereo not drawn) [Compound 181, 1-(4-(2-aminoethyl)piperidin-1-yl)-3-(1-(cyclohexylmethyl)-1H-indol-3-yl)-3-(m-tolyl)propan-1-one hydrochloride salt]	11	134	17	–
Cc1cccc(C(CC(=O)N[C@H]2CC[C@@H](N)CC2)c2cn(CC3CCCCC3)c3ccccc23)c1.Cl (stereo partly drawn) [Compound 114, N-((1s,4s)-4-aminocyclohexyl)-3-(1-(cyclohexylmethyl)-1H-indol-3-yl)-3-(m-tolyl)propanamide hydrochloride salt]	14	64	8	–
Cc1ccccc1C(CC(=O)NC1CCC(N)CC1)c1cn(CC2CCCCC2)c2ccccc12.Cl [Compound 149, N-((1S,4S)-4-aminocyclohexyl)-3-(1-(cyclohexylmethyl)-1H-indol-3-yl)-3-(o-tolyl)propanamide hydrochloride salt]	13	> 512	16	–
NC1CCC(NCCC(c2cccc(F)c2)c2cn(CC3CCCCC3)c3ccccc23)CC1 [Compound 172, (1S,4S)-N1-(3-(1-(cyclohexylmethyl)-1H-indol-3-yl)-3-(3-fluorophenyl)propyl) cyclohexane-1,4-diamine hydrochloride salt]	10	4	4	–
N[C@H]1CC[C@H](NCCc2cn(CC3CCCCC3)c3ccc(Br)cc23)CC1 [Compound 197, (1R,4R)-N1-(2-(5-bromo-1-(cyclohexylmethyl)-1H-indol-3-yl)ethyl) cyclohexane-1,4-diamine hydrochloride salt]	31	8	4	–
Cc1ccccc1-c1ccc2c(c1)c(CCN[C@H]1CC[C@H](N)CC1)cn2CC1CCCCC1 [Compound 244, (1R,4R)-N1-(2-(1-(cyclohexylmethyl)-5-(o-tolyl)-1H-indol-3-yl)ethyl)cyclohexane-1,4-diamine hydrochloride salt]	14.7	2	2	–
Cl.N[C@H]1CC[C@H](NC(=O)CCc2cn(CC3CCCCC3)c3ccc(-c4ccccc4OC(F)(F)F)cc23)CC1 [Compound 231, N-((1R,4R)-4-aminocyclohexyl)-3-(1-(cyclohexylmethyl)-5-(2-(trifluoromethoxy)phenyl)-1H-indol-3-yl) propanamide hydrochloride salt]	4.4	> 512	5	–
Cc1cccc(C(CCN(C)C2CCNCC2)c2cn(CC3CCCCC3)c3ccc(Br)cc23)c1 (stereo not drawn) [Compound 291, N-(3-(5-bromo-1-(cyclohexylmethyl)-1H-indol-3-yl)-3-(m-tolyl)propyl)-N-methylpiperidin-4-amine hydrochloride salt]	10	10	2	–
Cl.N[C@H]1CC[C@H](NC(=O)CC(c2cccnc2)c2cn(Cc3ccccc3)c3ccccc23)CC1 (stereo partly drawn) [Compound 99, N-((1R,4R)-4-aminocyclohexyl)-3-(1-benzyl-1H-indol-3-yl)-3-(pyridin-3-yl)propanamide hydrochloride salt]	18	> 512	256	–
Cl.N[C@H]1CC[C@H](NC(=O)Cc2cn(CC3CCCCC3)c3ccc(Br)cc23)CC1 [Compound 190, N-((1R,4R)-4-aminocyclohexyl)-2-(5-bromo-1-(cyclohexylmethyl)-1H-indol-3-yl)acetamide hydrochloride salt]	10	31	15	–
Cc1cc(F)cc(C(CC(=O)NC2CCC(N)CC2)c2cn(CC3CCCCC3)c3ccccc23)c1.Cl [Compound 150, N-((1S,4S)-4-aminocyclohexyl)-3-(1-(cyclohexylmethyl)-1H-indol-3-yl)-3-(3-fluoro-5-methylphenyl) propanamide hydrochloride salt]	64	512	8	–
Cc1cccc(C(CC(=O)N[C@H]2CC[C@H](N)CC2)c2cn(Cc3ccccc3)c3ccccc23)c1.Cl (stereo partly drawn) [Compound 64, N-((1R,4R)-4-aminocyclohexyl)-3-(1-benzyl-1H-indol-3-yl)-3-(m-tolyl)propanamide salt]	58	> 512	64	–
Cc1cccc(C(CC(=O)NCCC2CCNCC2)c2cn(CC3CCCCC3)c3ccccc23)c1.Cl (stereo not drawn) [Compound 92, 3-(1-(cyclohexylmethyl)-1H-indol-3-yl)-N-(2-(piperidin-4-yl)ethyl)-3-(m-tolyl)propanamide hydrochloride salt]	45	64	16	–
Cl.N[C@H]1CC[C@H](NC(=O)CCc2cc3ccccc3n2CC2CCCCC2)CC1 [Compound 276, N-((1R,4R)-4-aminocyclohexyl)-3-(1-(cyclohexylmethyl)-1H-indol-2-yl)propanamide hydrochloride salt]	43	54	54	–
Cl.O=C(Cc1cn(CC2CCC(F)(F)CC2)c2ccc(Br)cc12)NC1CCNCC1 [Compound 277, 2-(5-bromo-1-((4,4-difluorocyclohexyl)methyl)-1H-indol-3-yl)-N-(piperidin-4-yl)acetamide hydrochloride salt]	229	129	65	–
Cc1cccc(C(CC(=O)NCC2CCC(N)CC2)c2cn(CC3CCCCC3)c3ccccc23)c1.Cl [Compound 180, N-(((1R,4R)-4-aminocyclohexyl)methyl)-3-(1-(cyclohexylmethyl)-1H-indol-3-yl)-3-(m-tolyl)propanamide hydrochloride salt]	18	67	17	–
Cc1cccc(C(CC(=O)NC2CCC(N)CC2)c2cn(CC3CCCCC3)c3ccc(O)cc23)c1.Cl [Compound 165, N-((1S,4S)-4-aminocyclohexyl)-3-(1-(cyclohexylmethyl)-5-hydroxy-1H-indol-3-yl)-3-(m-tolyl)propanamide hydrochloride salt]	18	67	34	–
Cc1cccc(C(CC(=O)NCC2CCNCC2)c2cn(Cc3ccccc3)c3ncccc23)c1.Cl (stereo not drawn) [Compound 69, 3-(1-benzyl-1H-pyrrolo[2,3-b]pyridin-3-yl)-N-(piperidin-4-ylmethyl)-3-(m-tolyl)propanamide hydrochloride salt]	825	> 512	> 512	–
Cc1cccc(C(CC(=O)NCC2CNCCO2)c2cn(CC3CCCCC3)c3ccc(Br)cc23)c1.Cl (stereo not drawn) [Compound 281, 3-(5-bromo-1-(cyclohexylmethyl)-1H-indol-3-yl)-N-(morpholin-2-ylmethyl)-3-(m-tolyl)propanamide hydrochloride salt]	168	> 512	19	–
Cc1cccc(C(CC(=O)N2CCC(N)CC2)c2cn(CC3CCCCC3)c3ccccc23)c1.Cl (stereo not drawn) [Compound 179, 1-(4-aminopiperidin-1-yl)-3-(1-(cyclohexylmethyl)-1H-indol-3-yl)-3-(m-tolyl)propan-1-one hydrochloride salt]	12	63	8	–
Cc1cccc(C(CC(=O)N[C@H]2CC[C@H](N)CC2)c2cn(C(C)C3CCCCC3)c3ccccc23)c1.Cl (stereo partly drawn) [Compound 299, N-((1r,4r)-4-aminocyclohexyl)-3-(1-(1-cyclohexylethyl)-1H-indol-3-yl)-3-(m-tolyl)propanamide hydrochloride salt]	32	134	8	–
